Data reported in US12616704B2, “Cannabichromene formulation for pain management” (Zyus Life Sciences Inc., priority 2020, dated 2026).

Tested on: SNL-induced motor phenotype
Assay: Fine motor kinematic gait analysis (MotoRater) in SNL model
Format: in vivo, Sprague-Dawley rats
Settings: for Overall kinematic gait score, Vehicle vs. treatment: Summary / Overall kinematic gait score, Vehicle vs. treatment: Predicted (LS) mean diff.: between groups
Method: The treatment groups received the following test article mixtures: • Group 1: treated with vehicle (0.9% saline) • Group 2: treated with Pregabalin (50 mg/kg) • Group 3: treated with CBC (10 mg/kg)
Administration of Treatments. CBC (cannabichromene) formulation, the vehicle, or pregabalin treatment was administered according to Table 1 on study day 8 to all study animals, and on study day 10 to 6 animals per group. The dousing route of CBC or the vehicle were intragastric (p.o.), while pregabalin was administered intraperitoneally (i.p.). In addition to D8, pregabalin was administered on D9, at 2 h prior to the evf test. All animals of the pregabalin group were euthanized on D9, following the last test trial. The CBC was dissolved and diluted to one of the following vehicles:
Fine Motor Kinematic Gait Analysis. The subjected to gait analysis at the baseline and on study days 8, 9, 11, 14 and 17, at a minimum of 30 min after the evF test. The assay was carried out by MotoRater (TSE Systems, Homburg, Germany), with the walking mode. Prior to commencing the test, the essential body points (e.g. joints, limbs, nose, tail) were marked for tracking. The information of the gait performance was captured using a high speed camera (300 frames/second) from below and both sides. Next, the captured videos are converted to custom software. The raw data was obtained by tracking the marked points of the body from the videos recorded from all 3 dimensions. The raw data thus comprise correlation of the movements of different body points in coordinates related to the ground and each three dimensions.
Different gait patterns and movements were analyzed using a custom made automated analysis system. Information about altogether over a hundred kinematic parameters were attained. These comprised e.g:
All MotoRater data were analyzed for the distinct parameters, as well as for all combined parameters, using principal component analysis (PCA). The obtained results produce the model phenotype in gait analysis i.e. the difference between vehicle and cannabinoid treated animals regarding both individual parameters and PCA.
In addition to the baseline test, the motorater test was performed altogether four times over the course of behavioral study phase: • on D7, to assess the model-specific motor defects prior to dosing, • on D8, after finishing the 4-h evF, • on D8, after finishing the 8-h evF, and • on D9, after finishing the 24-h evF.
The kinematic assay was not performed to the animals before a minimum of 30 min after evF test.

[1] = BL (before dosing), vehicle vs. pregabalin group
[2] = D 7 (pre-dosing), vehicle vs. pregabalin group
[3] = within group, CBC 10 mg/kg p.o., pregabalin 50 mg/kg i.p.
[4] = within group, z-score, CBC 10 mg/kg p.o., pregabalin 50 mg/kg i.p.

CC(C)C[C@H](CN)CC(=O)O [Pregabalin, pregabalin, reference compound]
Duty Cycle [%]: Stats [1]: 2.77 | Duty Cycle, Fore [%]: Stats [1]: 3.26 | Mean Hip Jerk [m/s3]: Adjusted p-value [1]: 0.001 | Mean Hip Jerk [m/s3]: Adjusted p-value Sig? [1]: *** (*** p≤0.001) | Mean Hip Jerk [m/s3]: Stats [1]: −3.75 | Mean Hip Jerk [m/s3]: p-value [1]: 0.001 | Knee ROM Deviation [degree]: Stats (BL (before dosing), vehicle vs. treatment group): 3.23 | Overall kinematic gait score, Vehicle vs. treatment: Summary (Baseline (before SNL and dosing)): * (p<0.05, significant) | Overall kinematic gait score, Vehicle vs. treatment: Predicted (LS) mean diff. (Baseline (before SNL and dosing), z-score): −2.013 | Overall kinematic gait score, Vehicle vs. treatment: Summary (D7 (pre-dosing)): ns | Paw Trajectory Shape 25%, Hind [%]: Stats [2]: −3.01 | Relative Trajectory Length, Fore: Stats [2]: −3.26 | Overall kinematic gait score, Vehicle vs. treatment: Predicted (LS) mean diff. (D7 (pre-dosing), z-score): −0.5896 | Overall kinematic gait score, Vehicle vs. treatment: Summary (D8 5 h, CBC 10 mg/kg p.o., pregabalin 50 mg/kg i.p.): ns | Ankle Angle, Min [degree]: Stats (D 8 5 h, vehicle vs. pregabalin 50 mg/kg): −2.99 | Ankle Angle, Max [degree]: Stats (D 8 5 h, vehicle vs. treatment, CBC 10 mg/kg, pregabalin 50 mg/kg): −3.74 | Overall kinematic gait score, Vehicle vs. treatment: Predicted (LS) mean diff. (D8 5 h, z-score, CBC 10 mg/kg p.o., pregabalin 50 mg/kg i.p.): −0.2262 | Overall kinematic gait score, Vehicle vs. treatment: Summary (D8 9 h, CBC 10 mg/kg p.o., pregabalin 50 mg/kg i.p.): ns | Hip ROM [degree]: Stats (D 8 9 h, vehicle vs. pregabalin 50 mg/kg): 2.85 | Overall kinematic gait score, Vehicle vs. treatment: Predicted (LS) mean diff. (D8 9 h, z-score, CBC 10 mg/kg p.o., pregabalin 50 mg/kg i.p.): −0.8408 | Overall kinematic gait score, Vehicle vs. treatment: Summary (D9, CBC 10 mg/kg p.o., pregabalin 50 mg/kg i.p.): ns | Overall kinematic gait score, Vehicle vs. treatment: Predicted (LS) mean diff. (D9, z-score, CBC 10 mg/kg p.o., pregabalin 50 mg/kg i.p.): −0.8531 | Overall kinematic gait score, D7 vs. D8 5 h: Summary [3]: ns | Overall kinematic gait score, D7 vs. D8 9 h: Summary [3]: ** (p<0.01, very significant) | Overall kinematic gait score, D7 vs. D9: Summary [3]: ns | Overall kinematic gait score, D7 vs. Baseline: Summary (within group, before dosing): ** (p<0.01, very significant) | Overall kinematic gait score, D7 vs. D8 5 h: Predicted (LS) mean diff. [4]: −1.135 | Overall kinematic gait score, D7 vs. D8 9 h: Predicted (LS) mean diff. [4]: −2.27 | Overall kinematic gait score, D7 vs. D9: Predicted (LS) mean diff. [4]: −1.271 | Overall kinematic gait score, D7 vs. Baseline: Predicted (LS) mean diff. (within group, z-score, before dosing): 1.964
